What was measured:
JAK2 = target: T1, JAK2 (Homo sapiens, UniProt O60674); assay: Kinobeads assay, JAK2 (competition binding in cell lysate, dot blot detection); conditions: mixed Molt4/Ramos lysate
T1 construct: endogenous in cells; host or cells: Molt4 (ATCC CRL-1582) and Ramos (ATCC CRL-1596) cell lysate; mixed Molt4/Ramos lysate 1:2
Protocol: (§1) The compounds of the present invention as described in the previous examples were tested in a Kinobeads™ assay as described for ZAP-70 (WO-A 2007/137867). Briefly, test compounds (at various concentrations) and the affinity matrix with the immobilized aminopyrido-pyrimidine ligand 24 were added to cell lysate aliquots and allowed to bind to the proteins in the lysate sample. After the incubation time the beads with captured proteins were separated from the lysate. Bound proteins were then eluted and the presence of JAK2 and JAK3 was detected and quantified using specific antibodies in a dot blot procedure and the Odyssey infrared detection system. Dose response curves for individual kinases were generated and IC50 values calculated. Kinobeads™ assays for ZAP-70 (WO-A 2007/137867) and for kinase selectivity profiling (WO-A 2006/134056) have been previously described.
(§2) 5×DP buffer: 250 mM Tris-HCl pH 7.4, 25% Glycerol, 7.5 mM MgCl2, 750 mM NaCl, 5 mM Na3VO4; filter the 5×DP buffer through a 0.22 μm filter and store in aliquots at −80° C. The 5×DP buffer is diluted with H2O to 1×DP buffer containing 1 mM DTT and 25 mM NaF.
(§3) Stock solutions of test compounds were prepared in DMSO. In a 96 well plate 30 μL solution of diluted test compounds at 5 mM in DMSO were prepared. Starting with this solution a 1:3 dilution series (9 steps) was prepared. For control experiments (no test compound) a buffer containing 2% DMSO was used.
(§4) Molt4 cells (ATCC catalogue number CRL-1582) and Ramos cells (ATCC catalogue number CRL-1596) were grown in 1 L Spinner flasks (Integra Biosciences, #182101) in suspension in RPMI 1640 medium (Invitrogen, #21875-034) supplemented with 10% Fetal Bovine Serum (Invitrogen) at a density between 0.15×10^6 and 1.2×10^6 cells/mL. Cells were harvested by centrifugation, washed once with 1×PBS buffer (Invitrogen, #14190-094) and cell pellets were frozen in liquid nitrogen and subsequently stored at −80° C. Cells were homogenized in a Potter S homogenizer in lysis buffer: 50 mM Tris-HCl, 0.8% NP40, 5% glycerol, 150 mM NaCl, 1.5 mM MgCl2, 25 mM NaF, 1 mM sodium vanadate, 1 mM DTT, pH 7.5. One complete EDTA-free tablet (protease inhibitor cocktail, Roche Diagnostics, 1873580) per 25 mL buffer was added. The material was dounced 10 times using a mechanized POTTER S, transferred to 50 mL falcon tubes, incubated for 30 minutes on ice and spun down for 10 minutes at 20,000 g at 4° C. (10,000 rpm in Sorvall SLA600, precooled). The supernatant was transferred to an ultracentrifuge (UZ)-polycarbonate tube (Beckmann, 355654) and spun for 1 hour at 100.000 g at 4° C. (33.500 rpm in Ti50.2, precooled). The supernatant was transferred again to a fresh 50 mL falcon tube, the protein concentration was determined by a Bradford assay (BioRad) and samples containing 50 mg of protein per aliquot were prepared. The samples were immediately used for experiments or frozen in liquid nitrogen and stored frozen at −80° C.
(§5) Cell lysate (approximately 50 mg protein per plate) was thawed in a water bath at room temperature and then stored on ice. To the thawed cell lysate 1×DP 0.8% NP40 buffer containing protease inhibitors (1 tablet for 25 mL buffer; EDTA-free protease inhibitor cocktail; Roche Diagnostics 1873580) was added in order to reach a final protein concentration of 10 mg/mL total protein. The diluted cell lysate was stored on ice. Mixed Molt4/Ramos lysate was prepared by combining one volume of Molt4 lysate and two volumes of Ramos lysate (ratio 1:2).
(§6) Plates were sealed and incubated for 3 hours in a cold room on a plate shaker (Heidolph tiramax 1000) at 750 rpm. Afterwards the plate was washed 3 times with 230 μL washing buffer (1×DP 0.4% NP40). The filter plate was placed on top of a collection plate (Greiner bio-one, PP-microplate 96 well V-shape, 65120) and the beads were then eluted with 20 μL of sample buffer (100 mM Tris, pH 7.4, 4% SDS, 0.00025% bromophenol blue, 20% glycerol, 50 mM DTT). […]

JAK3 = target: T2, JAK3 (Homo sapiens, UniProt P52333); assay: Kinobeads assay, JAK3 (competition binding in cell lysate, dot blot detection); conditions: mixed Molt4/Ramos lysate
T2 construct: endogenous in cells; host or cells: Molt4 (ATCC CRL-1582) and Ramos (ATCC CRL-1596) cell lysate; mixed Molt4/Ramos lysate 1:2
T2 sequence (P52333 1-1124): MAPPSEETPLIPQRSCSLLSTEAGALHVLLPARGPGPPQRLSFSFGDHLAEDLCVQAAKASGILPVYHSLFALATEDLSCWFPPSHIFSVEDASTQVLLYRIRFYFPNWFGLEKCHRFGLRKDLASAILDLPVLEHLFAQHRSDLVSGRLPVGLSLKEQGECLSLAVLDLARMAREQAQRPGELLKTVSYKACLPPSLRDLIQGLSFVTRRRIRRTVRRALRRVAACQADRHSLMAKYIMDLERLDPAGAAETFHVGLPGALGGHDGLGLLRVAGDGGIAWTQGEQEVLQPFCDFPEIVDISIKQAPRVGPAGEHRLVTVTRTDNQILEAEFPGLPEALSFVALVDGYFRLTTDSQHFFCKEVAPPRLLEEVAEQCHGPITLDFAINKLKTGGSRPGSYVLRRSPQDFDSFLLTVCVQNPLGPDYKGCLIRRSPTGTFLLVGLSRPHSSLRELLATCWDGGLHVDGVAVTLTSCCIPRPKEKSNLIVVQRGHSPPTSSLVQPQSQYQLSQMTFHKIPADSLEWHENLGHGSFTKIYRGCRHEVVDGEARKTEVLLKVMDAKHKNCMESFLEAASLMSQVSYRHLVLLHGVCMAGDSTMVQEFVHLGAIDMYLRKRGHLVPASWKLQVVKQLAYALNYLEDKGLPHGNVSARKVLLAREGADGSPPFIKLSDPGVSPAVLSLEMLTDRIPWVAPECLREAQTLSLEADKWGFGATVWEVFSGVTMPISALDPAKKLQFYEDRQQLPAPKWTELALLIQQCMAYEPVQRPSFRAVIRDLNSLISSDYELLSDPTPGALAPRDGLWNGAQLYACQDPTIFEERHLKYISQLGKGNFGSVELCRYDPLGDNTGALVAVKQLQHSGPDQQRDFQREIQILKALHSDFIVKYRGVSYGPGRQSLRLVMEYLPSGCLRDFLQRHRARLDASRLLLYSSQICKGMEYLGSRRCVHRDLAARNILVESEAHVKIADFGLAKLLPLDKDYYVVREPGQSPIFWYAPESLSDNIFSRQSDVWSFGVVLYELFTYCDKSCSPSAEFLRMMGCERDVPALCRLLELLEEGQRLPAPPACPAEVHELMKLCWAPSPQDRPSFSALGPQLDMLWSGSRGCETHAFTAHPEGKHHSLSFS
Protocol: as §1, §2, §3, §4, §5, §6

T1 sequence (O60674 whole entry): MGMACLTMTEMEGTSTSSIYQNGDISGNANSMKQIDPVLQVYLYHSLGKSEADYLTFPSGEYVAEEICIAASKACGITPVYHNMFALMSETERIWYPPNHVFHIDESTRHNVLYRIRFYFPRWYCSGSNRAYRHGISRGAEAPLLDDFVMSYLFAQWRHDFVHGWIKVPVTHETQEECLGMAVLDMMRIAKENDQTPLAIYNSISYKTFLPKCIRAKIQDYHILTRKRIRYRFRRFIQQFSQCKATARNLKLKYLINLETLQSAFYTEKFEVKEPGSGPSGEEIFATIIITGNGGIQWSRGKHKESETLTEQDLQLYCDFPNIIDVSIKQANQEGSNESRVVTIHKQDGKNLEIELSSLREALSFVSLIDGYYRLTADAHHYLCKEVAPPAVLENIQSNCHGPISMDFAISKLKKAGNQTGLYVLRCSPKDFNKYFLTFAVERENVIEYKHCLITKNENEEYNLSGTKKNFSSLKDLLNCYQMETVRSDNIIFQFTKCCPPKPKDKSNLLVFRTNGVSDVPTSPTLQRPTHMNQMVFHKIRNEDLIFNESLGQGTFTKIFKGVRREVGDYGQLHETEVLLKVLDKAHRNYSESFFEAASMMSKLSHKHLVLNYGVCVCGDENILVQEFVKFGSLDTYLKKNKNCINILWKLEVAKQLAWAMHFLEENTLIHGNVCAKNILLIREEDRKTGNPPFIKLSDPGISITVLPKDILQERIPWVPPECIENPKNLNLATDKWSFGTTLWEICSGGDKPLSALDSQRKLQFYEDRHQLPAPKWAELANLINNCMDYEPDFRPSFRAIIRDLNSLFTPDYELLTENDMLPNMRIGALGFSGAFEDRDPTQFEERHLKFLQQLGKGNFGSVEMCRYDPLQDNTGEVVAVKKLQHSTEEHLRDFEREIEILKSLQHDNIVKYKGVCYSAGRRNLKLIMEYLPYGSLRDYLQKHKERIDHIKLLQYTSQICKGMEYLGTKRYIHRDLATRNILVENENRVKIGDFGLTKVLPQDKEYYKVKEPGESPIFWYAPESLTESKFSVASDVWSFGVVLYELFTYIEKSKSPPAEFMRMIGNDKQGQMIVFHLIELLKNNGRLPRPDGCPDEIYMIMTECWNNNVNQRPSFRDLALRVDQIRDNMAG

SMILES	IC50 (JAK2) [nM]	IC50 (JAK3) [nM]
Cn1cc(Nc2ncc3cnn(CC4CCCN(C(=O)OCCF)C4)c3n2)cn1 (stereo not drawn) [Example 44, 2-fluoroethyl 3-((6-((1-methyl-1H-pyrazol-4-yl)amino)-1H-pyrazolo[3,4-d]pyrimidin-1-yl)methyl)piperidine-1-carboxylate]	> 10000	100 to 1000
Cn1cc(Nc2ncc3cnn(CC4CCCN(C(=O)C(F)(F)F)C4)c3n2)cn1 (stereo not drawn) [Example 47, 2,2,2-trifluoro-1-(3-((6-((1-methyl-1H-pyrazol-4-yl)amino)-1H-pyrazolo[3,4-d]pyrimidin-1-yl)methyl)piperidin-1-yl)ethanone]	1000 to 10000	100 to 1000
CC(C)S(=O)(=O)N1CCCC(Cn2ncc3cnc(Nc4cnn(CC(F)F)c4)nc32)C1 (stereo not drawn) [Example 61, N-(1-(2,2-difluoroethyl)-1H-pyrazol-4-yl)-1-((1-(isopropylsulfonyl)piperidin-3-yl)methyl)-1H-pyrazolo[3,4-d]pyrimidin-6-amine]	1000 to 10000	< 100
CS(=O)(=O)N1CCCC(Cn2ncc3cnc(Nc4cnn(CC(F)F)c4)nc32)C1 (stereo not drawn) [Example 4, N-(1-(2,2-difluoroethyl)-1H-pyrazol-4-yl)-1-((1-(methylsulfonyl)piperidin-3-yl)methyl)-1H-pyrazolo[3,4-d]pyrimidin-6-amine]	1000 to 10000	< 100
COCCOC(=O)N1CCCC(Cn2ncc3cnc(Nc4cnn(C)c4)nc32)C1 (stereo not drawn) [Example 45, 2-methoxyethyl 3-((6-((1-methyl-1H-pyrazol-4-yl)amino)-1H-pyrazolo[3,4-d]pyrimidin-1-yl)methyl)piperidine-1-carboxylate]	> 10000	100 to 1000
CC(C)S(=O)(=O)N1CCCC(Cn2ncc3cnc(Nc4cnn(C)c4)nc32)C1 (stereo not drawn) [Example 32, 1-((1-(isopropylsulfonyl)piperidin-3-yl)methyl)-N-(1-methyl-1H-pyrazol-4-yl)-1H-pyrazolo[3,4-d]pyrimidin-6-amine]	1000 to 10000	< 100
CCS(=O)(=O)N1CCC(Cn2ncc3cnc(Nc4cnn(C)c4)nc32)C1 (stereo not drawn) [Example 42, 1-((1-(ethylsulfonyl)pyrrolidin-3-yl)methyl)-N-(1-methyl-1H-pyrazol-4-yl)-1H-pyrazolo[3,4-d]pyrimidin-6-amine]	> 10000	100 to 1000
Cn1cc(Nc2ncc3cnn(C4CCN(S(C)(=O)=O)CC4)c3n2)cn1 [Example 3, N-(1-methyl-1H-pyrazol-4-yl)-1-(1-(methylsulfonyl)piperidin-4-yl)-1H-pyrazolo[3,4-d]pyrimidin-6-amine]	1000 to 10000	100 to 1000
Cn1cc(Nc2ncc3cnn(CC4CCNC4)c3n2)cn1 (stereo not drawn) [Example 40, N-(1-methyl-1H-pyrazol-4-yl)-1-(pyrrolidin-3-ylmethyl)-1H-pyrazolo[3,4-d]pyrimidin-6-amine]	1000 to 10000	100 to 1000
CC1CCCC(n2ncc3cnc(Nc4cnn(C)c4)nc32)C1 (stereo not drawn) [Example 13, N-(1-methyl-1H-pyrazol-4-yl)-1-(3-methylcyclohexyl)-1H-pyrazolo[3,4-d]pyrimidin-6-amine]	> 10000	100 to 1000
Cn1cc(Nc2ncc3cnn(CC4CCCN(C(=O)CCS(C)(=O)=O)C4)c3n2)cn1 (stereo not drawn) [Example 23, 1-(3-((6-((1-methyl-1H-pyrazol-4-yl)amino)-1H-pyrazolo[3,4-d]pyrimidin-1-yl)methyl)piperidin-1-yl)-3-(methylsulfonyl)propan-1-one]	1000 to 10000	< 100
N#CCCN1CCCC(Cn2ncc3cnc(Nc4cnn(CC(F)F)c4)nc32)C1 (stereo not drawn) [Example 57, 3-(3-((6-((1-(2,2-difluoroethyl)-1H-pyrazol-4-yl)amino)-1H-pyrazolo[3,4-d]pyrimidin-1-yl)methyl)piperidin-1-yl)propanenitrile]	> 10000	< 100

The next lines start with the values.

IC50 (JAK2) [nM]	IC50 (JAK3) [nM]	SMILES
> 10000	100 to 1000	CN(C)CC(=O)N1CCCC(Cn2ncc3cnc(Nc4cnn(C)c4)nc32)C1 (stereo not drawn) [Example 29, 2-(dimethylamino)-1-(3-((6-((1-methyl-1H-pyrazol-4-yl)amino)-1H-pyrazolo[3,4-d]pyrimidin-1-yl)methyl)piperidin-1-yl)ethanone]
1000 to 10000	< 100	CN1CCCC(Cn2ncc3cnc(Nc4cnn(C)c4)nc32)C1 (stereo not drawn) [Example 6, N-(1-methyl-1H-pyrazol-4-yl)-1-((1-methylpiperidin-3-yl)methyl)-1H-pyrazolo[3,4-d]pyrimidin-6-amine]
1000 to 10000	< 100	Cn1cc(Nc2ncc3cnn(CC4CCCN(CCC#N)C4)c3n2)cn1 (stereo not drawn) [Example 41, 3-(3-((6-((1-methyl-1H-pyrazol-4-yl)amino)-1H-pyrazolo[3,4-d]pyrimidin-1-yl)methyl)piperidin-1-yl)propanenitrile]
1000 to 10000	< 100	CNC(=O)CN1CCCC(Cn2ncc3cnc(Nc4cnn(C)c4)nc32)C1 (stereo not drawn) [Example 64, N-methyl-2-(3-((6-((1-methyl-1H-pyrazol-4-yl)amino)-1H-pyrazolo[3,4-d]pyrimidin-1-yl)methyl)piperidin-1-yl)acetamide]
1000 to 10000	< 100	Cn1cc(Nc2ncc3cnn(CC4CCCN(CCS(C)(=O)=O)C4)c3n2)cn1 (stereo not drawn) [Example 46, N-(1-methyl-1H-pyrazol-4-yl)-1-((1-(2-(methylsulfonyl)ethyl)piperidin-3-yl)methyl)-1H-pyrazolo[3,4-d]pyrimidin-6-amine]
> 10000	< 100	COCC(=O)N1CCCC(Cn2ncc3cnc(Nc4cnn(C)c4)nc32)C1 (stereo not drawn) [Example 21, 2-methoxy-1-(3-((6-((1-methyl-1H-pyrazol-4-yl)amino)-1H-pyrazolo[3,4-d]pyrimidin-1-yl)methyl)piperidin-1-yl)ethanone]

Source: US20130131043A1, “PYRAZOLE COMPOUNDS AS JAK INHIBITORS” (priority 2010, published 2013)
